Laboratory results taken from patent US12611438B2, “Antiviral composition comprising a nucleolin-binding peptide” (ANYGEN CO., LTD., priority 2021, dated 2026).

Assays:
SARS-COV-2 = settings: 24 h
[1] = MTT cytotoxicity assay, Vero cells; settings: African green monkey

CC[C@H](C)[C@H](NC(=O)[C@H](CCCNC(=N)N)NC(=O)[C@H](CC(C)C)NC(=O)[C@@H](NC(=O)[C@H](CCCNC(=N)N)NC(=O)[C@H](CCSC)NC(=O)[C@@H](NC(=O)[C@@H](N)CCCNC(=N)N)[C@@H](C)CC)[C@@H](C)CC)C(=O)N[C@@H](CC(C)C)C(=O)N[C@@H](CCCCN)C(=O)N[C@@H](CC(C)C)C(=O)N[C@@H](C)C(=O)N[C@@H](CCCNC(=N)N)C(=O)NCCCC[C@H](NC(=O)[C@H](CCCNC(=N)N)NC(=O)[C@H](C)NC(=O)[C@H](CC(C)C)NC(=O)[C@H](CCCCN)NC(=O)[C@H](CC(C)C)NC(=O)[C@@H](NC(=O)[C@H](CCCNC(=N)N)NC(=O)[C@H](CC(C)C)NC(=O)[C@@H](NC(=O)[C@H](CCCNC(=N)N)NC(=O)[C@H](CCSC)NC(=O)[C@@H](NC(=O)[C@@H](N)CCCNC(=N)N)[C@@H](C)CC)[C@@H](C)CC)[C@@H](C)CC)C(=O)N[C@@H](CSSC[C@H](NC(=O)[C@H](CCCCNC(=O)CCOCCOCCOCCOCCOCCOCCNC(=O)[C@H](CCCCN)NC(=O)[C@H](CC(C)C)NC(=O)[C@H](Cc1ccc(O)cc1)NC(=O)[C@@H](NC(=O)[C@H](CCSC)NC(=O)[C@H](C)NC(=O)CNC(=O)[C@H](Cc1c[nH]cn1)NC(=O)[C@@H](N)CCCNC(=N)N)C(C)C)NC(=O)CCOCCOCCOCCOCCOCCOCCNC(=O)[C@H](CCCCN)NC(=O)[C@H](CC(C)C)NC(=O)[C@H](Cc1ccc(O)cc1)NC(=O)[C@@H](NC(=O)[C@H](CCSC)NC(=O)[C@H](C)NC(=O)CNC(=O)[C@H](Cc1c[nH]cn1)NC(=O)[C@@H](N)CCCNC(=N)N)C(C)C)C(=O)O)C(=O)O [AGM-330d-dCPP]
IC50 (SARS-COV-2): 5.2 µM
CC50 at 24 h [1]: 7.73 µM
